# According to US20180256596A1, “METHOD AND TOPICAL COMPOSITION FOR THE TREATMENT OF ROSACEA AND SKIN ERYTHEMA USING PYRITHIONE ZINC” (priority 2017, published 2018):
# Tested on: facial Rosacea
# Assay: clinical type observations of topical application to facial skin
# Format: in vivo
# Conditions: pyrithione zinc aqueous solution of 1% concentration strength as sole active ingredient
# Experimental: In usage, the fluid composition of the invention is to be administered topically by a vehicle or carrier medium compatible with application to the skin. A useful regimen would be to a) mix 1 part of a 1% concentration strength pyrithione zinc aqueous solution with 3 parts of a cocoa butter emulsion moisturizer cream carrier; b) apply the fluid composition to the facial area of concern; c) leave the fluid composition for 2-3 minutes at the area of application; and d) rinse it off. […] For a more resistant condition of facial Rosacea, the regimen would be essentially the same—but with an increased concentration strength of pyrithione zinc aqueous solution, as by the addition of further pyrithione zinc (or zinc pyrithione) crystals to the aqueous formulation.
smiles,measurement,value
"[O-]n1ccccc1=S.[O-]n1ccccc1=S.[Zn+2] [pyrithione zinc, Bis [1-hydroxy-2(1H)-pyridinethionato-O,S] (T-4) zinc]","redness, flushing and inflammation associated with facial Rosacea and skin erythema","significantly reducing the redness, flushing and inflammation"
